Data: ChEMBL document CHEMBL3297647, “Biological evaluation of subglutinol a as a novel immunosuppressive agent for inflammation intervention” (ACS Med Chem Lett, 2014)
The source made the active and inactive calls. The rule behind the calls is not given here.

Tests used:
Lymphocyte = experiment: Immunosuppressive activity in lymphocytes by MLR assay; assay type: functional, cell-based
Mus musculus [1] = experiment: Immunosuppressive activity in C57BL/6J mouse KLH-induced delayed-type hypersensitivity model assessed as blockade of lymphocyte accumulation at 16 nmol administered on day 7 and 8 post-sensitization measured on day 9; assay type: functional, organism-based
T-cell [2] = experiment: Antiinflammatory activity in LLO118 TCR transgenic mouse IL-2-competent CD4-positive T cells assessed as inhibition of LLO (190 to 205)-induced IL-2 production at 100 nM for 2 days by flow cytometric analysis; assay type: functional, cell-based
Mus musculus [3] = experiment: Immunosuppressive activity in C57BL/6J mouse KLH-induced delayed-type hypersensitivity model assessed as amelioration of tissue injury at 16 nmol administered on day 7 and 8 post-sensitization measured on day 9; assay type: functional, organism-based
Mus musculus [4] = experiment: Immunosuppressive activity in C57BL/6J mouse KLH-induced delayed-type hypersensitivity model assessed as alleviation of footpad swelling at 16 nmol administered on day 7 and 8 post-sensitization measured on day 9; assay type: functional, organism-based
T-cell [5] = experiment: Induction of apoptosis in LLO118 TCR transgenic mouse LLO (190 to 205)-activated CD4-positive T cells assessed as dead divided cells at 100 nM after 48 hrs by CFSE dilution/flow cytometric analysis (reference value: 3.04%); assay type: functional
BMDC [6] = experiment: Induction of mitochondrial depolarization in LPS-matured B6 mouse BMDC at 100 nM for 1 day by MitoTracker Orange CMTMRos staining-based flow cytometric analysis; assay type: functional
BMDC [7] = experiment: Reduction in mitochondrial mass in LPS-matured B6 mouse BMDC at 100 nM for 1 day by MitoTracker Deep Red FM staining-based flow cytometric analysis; assay type: functional
Th1 [8] = experiment: Induction of mitochondrial depolarization in LLO118 TCR transgenic mouse Th1 cells treated for 2 days by MitoTracker Orange CMTMRos staining-based flow cytometric analysis; assay type: functional, cell-based
[9] = Antiinflammatory activity in LLO118 TCR transgenic mouse IL-2-competent CD4-positive T cells assessed as inhibition of LLO (190 to 205)-induced IL-2 production at 1 nM for 2 days by flow cytometric analysis relative to control; assay type: functional; settings: T-cell, 48 h
[10] = Immunosuppressive activity in C57Bl/6 mouse lymphocytes assessed as inhibition of cell proliferation co-incubated with BALB/c mouse stimulator lymphocytes after 72 hrs by [3H]-thymidine incorporation assay; assay type: functional, cell-based; settings: C57Bl/6, Lymphocyte
Th17 [11] = experiment: Induction of mitochondrial depolarization in LLO118 TCR transgenic mouse Th17 cells treated for 2 days by MitoTracker Orange CMTMRos staining-based flow cytometric analysis; assay type: functional, cell-based
Th17 [12] = experiment: Reduction in mitochondrial mass in LLO118 TCR transgenic mouse Th17 cells at 50 to 100 nM for 2 days by MitoTracker Deep Red FM staining-based flow cytometric analysis; assay type: functional, cell-based
Th17 [13] = experiment: Antiinflammatory activity in LLO118 TCR transgenic mouse Th17 cells assessed as inhibition of IL-17 production at 10 to 100 nM for 2 days by flow cytometric analysis; assay type: functional, cell-based
BMDC [14] = experiment: Reduction in mitochondrial mass in B6 mouse immature BMDC at 100 nM for 1 day by MitoTracker Deep Red FM staining-based flow cytometric analysis; assay type: functional
Th1 [15] = experiment: Reduction in mitochondrial mass in LLO118 TCR transgenic mouse Th1 cells at 50 to 100 nM for 2 days by MitoTracker Deep Red FM staining-based flow cytometric analysis; assay type: functional, cell-based
T-cell [16] = experiment: Induction of apoptosis in pMel-1 TCR transgenic C57BL/6 mouse gp100 (25 to 33)-activated CD8-positive T cells assessed as dead divided cells at 100 nM after 48 hrs by CFSE dilution/flow cytometric analysis (reference value: 14.7%); assay type: functional
T-cell [17] = experiment: Induction of apoptosis in LLO118 TCR transgenic mouse LLO (190 to 205)-activated CD4-positive T cells assessed as dead undivided cells at 100 nM after 48 hrs by CFSE dilution/flow cytometric analysis (reference value: 14.7%); assay type: functional
[18] = Antiinflammatory activity in LLO118 TCR transgenic mouse Th1 cells assessed as inhibition of IFN-gamma production at 10 nM for 2 days by flow cytometric analysis (reference value: 90%); assay type: functional; set-up: scale not given: the % may be the effect or the level left
T-cell [19] = experiment: Induction of apoptosis in pMel-1 TCR transgenic C57BL/6 mouse gp100 (25 to 33)-activated CD8-positive T cells assessed as dead undivided cells at 100 nM after 48 hrs by CFSE dilution/flow cytometric analysis (reference value: 6.77%); assay type: functional
T-cell [20] = experiment: Induction of apoptosis in LLO118 TCR transgenic mouse LLO (190 to 205)-activated CD4-positive T cells assessed as live undivided cells at 100 nM after 48 hrs by CFSE dilution/flow cytometric analysis (reference value: 41.6%); assay type: functional
T-cell [21] = experiment: Induction of apoptosis in pMel-1 TCR transgenic C57BL/6 mouse gp100 (25 to 33)-activated CD8-positive T cells assessed as live undivided cells at 100 nM after 48 hrs by CFSE dilution/flow cytometric analysis (reference value: 23.4%); assay type: functional
T-cell [22] = experiment: Induction of apoptosis in LLO118 TCR transgenic mouse LLO (190 to 205)-activated CD4-positive T cells assessed as live divided cells at 100 nM after 48 hrs by CFSE dilution/flow cytometric analysis (reference value: 40.6%); assay type: functional
T-cell [23] = experiment: Induction of apoptosis in pMel-1 TCR transgenic C57BL/6 mouse gp100 (25 to 33)-activated CD8-positive T cells assessed as live divided cells at 100 nM after 48 hrs by CFSE dilution/flow cytometric analysis (reference value: 55.2%); assay type: functional
BMDC [24] = experiment: Induction of mitochondrial depolarization in B6 mouse immature BMDC at 100 nM for 1 day by MitoTracker Orange CMTMRos staining-based flow cytometric analysis; assay type: functional

| Compound | IC50 (Lymphocyte) | Activity (T-cell [5]) | IC50 [10] | Activity (T-cell [16]) | Activity (T-cell [17]) | Activity (T-cell [19]) | Activity (T-cell [20]) | Activity (T-cell [21]) | Activity (T-cell [22]) | Activity (T-cell [23]) | further results |
| --- | --- | --- | --- | --- | --- | --- | --- | --- | --- | --- | --- |
| C=C1CC[C@H]2[C@]3(C)C[C@@H](C=C(C)C)O[C@H]3CC[C@]2(C)[C@@H]1Cc1c(O)c(C)c(C)oc1=O [SUBGLUTINOL A] | 25 nM | 3.29% | 100 nM | 3.09% | 82.6% | 83.6% | 13.4% | 12.3% | 0.73% | 1.04% | Activity (Mus musculus [1]): Active; inhibition (T-cell [2]): Active; Activity (Mus musculus [3]): Active; Activity (Mus musculus [4]): Active; Activity (BMDC [6]): inactive; Activity (BMDC [7]): inactive; Activity (Th1 [8]): Dose-dependent effect; inhibition at 0.001 µM [9]: 50%; Activity (Th17 [11]): Dose-dependent effect; Activity (Th17 [12]): inactive; inhibition (Th17 [13]): Active; Activity (BMDC [14]): inactive; Activity (Th1 [15]): Active; Activity [18]: <1%; Activity (BMDC [24]): inactive |
| C/C=C/C[C@@H](C)[C@@H](O)[C@H]1C(=O)N[C@@H](CC)C(=O)N(C)CC(=O)N(C)[C@@H](CC(C)C)C(=O)N[C@@H](C(C)C)C(=O)N(C)[C@@H](CC(C)C)C(=O)N[C@@H](C)C(=O)N[C@H](C)C(=O)N(C)[C@@H](CC(C)C)C(=O)N(C)[C@@H](CC(C)C)C(=O)N(C)[C@@H](C(C)C)C(=O)N1C [CYCLOSPORINE] | 89 nM | 10.9% |  | 10.8% | 86.1% | 86.5% | 1.94% | 2.01% | 1.02% | 0.68% |  |
| C=C1CC[C@H]2[C@]3(C)C[C@H](C=C(C)C)O[C@H]3CC[C@]2(C)[C@@H]1Cc1c(O)c(C)c(C)oc1=O [SUBGLUTINOL B] |  |  | 100 nM |  |  |  |  |  |  |  |  |
